From ChEMBL document CHEMBL1140732, “2-(3-aryl-3-oxopropen-1-yl)-9-tert-butyl-paullones: a new antileishmanial chemotype” (J Med Chem, 2008)
pEC50, pIC50: −log10 of the molar value.

Columns and labels:
THP-1 [1] = assay: Toxicity against human THP1 cells at 5 uM by alamar blue viability assay; details: thp-1, 5 µM
Leishmania donovani [2] = assay: microbe, parasite or virus in culture; format: functional; details: 1S-C12d
Description: Antileishmanial activity against Leishmania donovani MHOM/SD/1962/1S-C12d axenic amastigotes at 15 uM by alamar blue viability assay

Leishmania donovani [3] = assay: microbe, parasite or virus in culture; format: functional; details: 1S-C12d, THP-1
Description: Growth inhibition of Leishmania donovani MHOM/SD/1962/1S-C12d axenic amastigotes in infected THP1 macrophages at 5 uM by alamar blue viability assay

Leishmania donovani [4] = assay: microbe, parasite or virus in culture; format: functional; details: 1S-C12d; remark: listed apart in the source
Description: Antileishmanial activity against Leishmania donovani MHOM/SD/1962/1S-C12d axenic amastigotes by alamar blue viability assay

Leishmania donovani [5] = assay: Growth inhibition of Leishmania donovani MHOM/SD/1962/1S-C12d […] amastigotes in infected THP1 macrophages at 1 uM by alamar blue viability assay; format: functional; details: THP-1
THP-1 [6] = assay: Toxicity against human THP1 cells at 1 uM by alamar blue viability assay; format: cell-based; details: thp-1, 1 µM
[7] = Inhibition of fumarate reductase in crude mitochondria fraction of Leishmania major promastigotes
[8] = Inhibition of fumarate reductase in permeabilized Leishmania major promastigotes
Leishmania donovani [9] = assay: Inhibition of Leishmania donovani infection in mouse macrophages; format: functional; details: read-out: ED50 (the source's name)
[10] = Toxicity against mouse macrophages at 10 uM; format: cell-based; details: macrophage

Compound	Activity (THP-1 [1])	inhibition at 15 µM (Leishmania donovani [2])	inhibition at 5 µM (Leishmania donovani [3])	GI50 (Leishmania donovani [4])	inhibition at 1 µM (Leishmania donovani [5])	Activity (THP-1 [6])	pIC50 [7]	pIC50 [8]	pEC50 (Leishmania donovani [9])	Activity [10]
CC(C)(C)c1ccc2[nH]c3c(c2c1)CC(=O)Nc1ccc(/C=C/C(=O)c2ccco2)cc1-3	3.3%	97.6%	76.2%	760 nM						
C[C@@H]1[C@H](O)[C@@H](C)/C=C/C=C/C=C/C=C/C=C/C=C/C=C/[C@H](O[C@@H]2O[C@H](C)[C@@H](O)[C@H](N)[C@@H]2O)C[C@@H]2O[C@](O)(C[C@@H](O)C[C@@H](O)[C@H](O)CC[C@@H](O)C[C@@H](O)CC(=O)O[C@H]1C)C[C@H](O)[C@H]2C(=O)O (stereo in doubt) [AMPHOTERICIN B]					> 90%	> 90%				
COc1ccc(C(=O)/C=C/c2ccc3c(c2)-c2[nH]c4ccc(C(C)(C)C)cc4c2CC(=O)N3)c(OC)c1	0%	93.6%	85.6%	840 nM						
CC(C)(C)c1ccc2[nH]c3c(c2c1)CC(=O)Nc1ccc(/C=C/C#N)cc1-3	0%	63.8%	47.3%	3600 nM						
COc1ccc(C(=O)/C=C/c2ccc3c(c2)-c2[nH]c4ccc(C(C)(C)C)cc4c2CC(=O)N3)cc1	0%	97.5%	71.7%	1200 nM						
COc1cc(C(=O)/C=C/c2ccc3c(c2)-c2[nH]c4ccc(C(C)(C)C)cc4c2CC(=O)N3)cc(OC)c1OC	92.7%	96.8%	99.2%	1100 nM						
CC(C)(C)c1ccc2[nH]c3c(c2c1)CC(=O)Nc1ccc(/C=C/C(=O)c2cccs2)cc1-3	60.5%	98.8%	79.3%	1000 nM						
CC(=O)/C=C/c1ccc2c(c1)-c1[nH]c3ccc(C)cc3c1CC(=O)N2	0%	65.2%	0%	12000 nM						
C=CC(C)(C)c1cc(/C=C/C(=O)c2ccc(O)cc2)c(OC)cc1O [LICOAGROCHACONE A]							5.85	5.92		
CC(=O)/C=C/c1ccc2c(c1)-c1[nH]c3ccccc3c1CC(=O)N2	0%	98.7%	11.4%	3400 nM						
CC(=O)/C=C/c1ccc2c(c1)-c1[nH]c3ccc(F)cc3c1CC(=O)N2	0%	45.4%	0%							
N#Cc1ccc2[nH]c3c(c2c1)CC(=O)Nc1ccccc1-3 [PAULLONE 2]									4.71	Toxic
O=C1Cc2c([nH]c3ccccc23)-c2cc(/C=C/C(=O)c3ccccc3)ccc2N1	0%	99.6%	0%	5000 nM						
CC(C)(C)c1ccc2[nH]c3c(c2c1)CC(=O)Nc1ccc(C#Cc2ccccc2)cc1-3	9%	79.6%	72%	860 nM						
CC(=O)/C=C/c1ccc2c(c1)-c1[nH]c3ccc(C(C)(C)C)cc3c1CC(=O)N2	62%	99%	56.2%	2800 nM						
COc1ccc(OC)c(C(=O)/C=C/c2ccc3c(c2)-c2[nH]c4ccc(C(C)(C)C)cc4c2CC(=O)N3)c1	95.7%	96.8%	93.8%	1100 nM						
COc1ccc(C(=O)/C=C/c2ccc(NC(C)=O)cc2)cc1		69.6%								
COc1ccc(C(=O)/C=C/c2ccc3c(c2)-c2[nH]c4ccc(C(C)(C)C)cc4c2CC(=O)N3)cc1OC	49.7%	95.5%	86%	1000 nM						
CC(C)(C)c1ccc2[nH]c3c(c2c1)CC(=O)Nc1ccc(/C=C/C(=O)c2ccc(O)cc2)cc1-3	80.3%	97.2%	54.8%	3000 nM						
CC(C)(C)c1ccc2[nH]c3c(c2c1)CC(=O)Nc1ccc(/C=C/C(=O)c2ccc(Cl)cc2)cc1-3	0%	98.3%	76.8%	1200 nM						
Cc1ccc2[nH]c3c(c2c1)CC(=O)Nc1ccc(/C=C/C(=O)c2ccc(Cl)cc2)cc1-3	0%	17.4%	0%							
CC(C)(C)c1ccc2[nH]c3c(c2c1)CC(=O)Nc1ccc(/C=C/C(=O)c2cccnc2)cc1-3	0%	98.1%	76.2%	780 nM						
CC(C)(C)c1ccc2[nH]c3c(c2c1)CC(=O)Nc1ccc(/C=C/C(=O)c2ccccc2)cc1-3	0%	99%	61.8%	1100 nM						
CC(=O)/C=C/c1ccc2c(c1)-c1[nH]c3ccc(C#N)cc3c1CC(=O)N2	48%	9.8%	0%							
